Here are results for 2 compounds from patent US7727952B2, “Methods for treating spinal and bulbar muscular atrophy using LHRH analogs” (priority 2002, dated 2010).

Data set [1] is described as follows: Serum testosterone radioimmunoassay in Leuprorelin-administered male AR-97Q mice. In kind it is in vivo, mouse. The note with it: #4-6, n=4. As for the experimental part:
Leuprorelin was administrated as follows. 100 μg of Leuprorelin acetate was suspended in a solution containing D-mannitol, which was subcutaneously injected to the mice every two weeks from five weeks of age until the end of the analysis. To the control group, only suspension was administrated. […] That is to say, motor impairment assessed by rotarod and cage activity was far milder in the Leuprorelin-administrated male AR-97Q mice as compared with the control group, and motor dysfunction was hardly shown in the Leuprorelin-administrated group (FIGS. 5A, B, C and D).

The next data set relates to male AR-97Q mice. Kind of data set: Administration of Leuprorelin to male AR-97Q mice: symptoms (body weight, rotarod task, cage activity, survival rate, body size, foot prints). In kind it is in vivo, mouse. As for the experimental part:
We analyzed rotarod task of mice by an Economex Rotarod (Colombus Instruments, USA) weekly during the light phase of the 12 h light/12 h dark cycle as described previously (Adachi et al., 2001). We performed three trials, and recorded the longest duration on the rod for every mouse. We stopped the timer when the mouse fell from the rod or after an arbitrary limit of 180 seconds. We measured cage activity while each mouse was in a transparent acrylic cage (16×30×14 cm). We used an AB system (Neuroscience, Japan) with an infrared ray sensor monitor to measure spontaneous motor activity. We automatically totaled and recorded all measurements for 24 hours per week at 10-min intervals. […] Leuprorelin was administrated as follows. 100 μg of Leuprorelin acetate was suspended in a solution containing D-mannitol, which was subcutaneously injected to the mice every two weeks from five weeks of age until the end of the analysis. To the control group, only suspension was administrated. […] That is to say, motor impairment assessed by rotarod and cage activity was far milder in the Leuprorelin-administrated male AR-97Q mice as compared with the control group, and motor dysfunction was hardly shown in the Leuprorelin-administrated group (FIGS. 5A, B, C and D).

For data set [2] the following is noted: The Leuproride Study Group 1984; cited from earlier work.
A short description of data set [3]: Serum testosterone radioimmunoassay in testosterone-administered female AR-97Q mice. In kind it is in vivo, mouse. The note with it: testosterone-administered female 97Q mice, control mice undetectable low level.
The next data set relates to female AR-97Q mice. Kind of data set: Administration of testosterone to female AR-97Q mice: symptoms (body weight, rotarod task, cage activity, survival rate, body size, foot prints). In kind it is in vivo, mouse. As for the experimental part:
We analyzed rotarod task of mice by an Economex Rotarod (Colombus Instruments, USA) weekly during the light phase of the 12 h light/12 h dark cycle as described previously (Adachi et al., 2001). We performed three trials, and recorded the longest duration on the rod for every mouse. We stopped the timer when the mouse fell from the rod or after an arbitrary limit of 180 seconds.
We measured cage activity while each mouse was in a transparent acrylic cage (16×30×14 cm). We used an AB system (Neuroscience, Japan) with an infrared ray sensor monitor to measure spontaneous motor activity. We automatically totaled and recorded all measurements for 24 hours per week at 10-min intervals.
Male AR-97Q mice and their normal littermates were castrated or sham-operated via the abdominal route under ketamine-xylazine anesthesia (50 mg/kg ketamine and 10 mg/kg xylazine, i.p.) at 4 weeks of age. […] The control mice were given the same amount of sesame oil.
(In general: Falling from the rotarod earlier than controls is read as motor impairment.)

“Also recorded” adds a separate entry of the source.

In the case of `CCNC(=O)[C@@H]1CCCN1C(=O)[C@H](CCCNC(=N)N)NC(=O)[C@H](CC(C)C)NC(=O)[C@@H](CC(C)C)NC(=O)[C@H](Cc1ccc(O)cc1)NC(=O)[C@H](CO)NC(=O)[C@H](Cc1c[nH]c2ccccc12)NC(=O)[C@H](Cc1c[nH]cn1)NC(=O)[C@@H]1CCC(=O)N1` [Leuprorelin], in data set [1], the serum testosterone value result is listed as “undetectable low level”. For the same compound, in the data set with male AR-97Q mice (FIG. 5B, #7-8, Leuprorelin-administered group vs control (vehicle) group, n=6), the rotarod task result is given as “significant difference”. For the same compound, in the data set on male AR-97Q mice (FIG. 5C, #7-8, Leuprorelin-administered group vs control (vehicle) group, n=6), the cage activity entry is listed as “significant difference”. For the same compound, the body size result in the data set on male AR-97Q mice (FIG. 5E, #4-6, 12-week-old, control group showed severe muscular atrophy) was “normal”. In the data set with male AR-97Q mice (male AR-97Q mice, 100 μg Leuprorelin acetate s.c. every two weeks from five weeks of age, vs control group (suspension only)), the symptoms result is given as “remarkable improvement”. Moreover, the motor dysfunction result in the data set on male AR-97Q mice (male AR-97Q mice, 100 μg s.c. every two weeks) is listed as “hardly shown”. Also, the “motor impairment assessed by rotarod and cage activity” value with male AR-97Q mice (male AR-97Q mice, 100 μg s.c. every two weeks, compared with the control group) is on record as “far milder”. The “reduction in body size” value with male AR-97Q mice (male AR-97Q mice, FIG. 5E, #4-6, 12-week-old) is given as “remarkably improved”. Moreover, the “motor weakness (foot prints)” value with male AR-97Q mice (male AR-97Q mice, FIG. 5F, #4-6, 12-week-old) is recorded as “improved”. In addition, in data set [2], the “effect of inhibiting the secretion of testosterone, relative to castration” value is recorded as “same level”.
Regarding `CCCCCCC(=O)O[C@H]1CC[C@H]2[C@@H]3CCC4=CC(=O)CC[C@]4(C)[C@H]3CC[C@]12C` [testosterone, testosterone enanthate], the serum testosterone levels in data set [3] (line #2-6, n=3) worked out at 158.0 ± 70.7 ng/dL; in data set [3] (line #7-8, n=4), 305.3 ± 182.3 ng/dL. Besides, the body weight result in the data set with female AR-97Q mice (FIG. 6A, #7-8, testosterone-administered group vs testosterone-administered normal mice or control (oil) group, p<0.0001) is reported as “significant difference”. Also, the rotarod task result with female AR-97Q mice (FIG. 6B, #7-8, testosterone-administered group vs testosterone-administered normal mice or control (oil) group, p<0.0001) is on record as “significant difference”. Moreover, in the data set on female AR-97Q mice (FIG. 6C, #2-6, testosterone-administered group vs testosterone-administered normal mice or control (oil) group, p<0.0001), the cage activity entry was “significant difference”. In addition, in the data set on female AR-97Q mice (FIG. 6D, #7-8, testosterone-administered group vs testosterone-administered normal mice or control (oil) group, p<0.0001), the survival rate entry is reported as “significant difference”. Also, the “symptoms, pathologic findings and nuclear localization of the mutant protein” value with female AR-97Q mice (female AR-97Q mice, 20 μg testosterone enanthate s.c. weekly from 4 weeks of age, vs sesame-oil control group) was “drastically exacerbated”. In addition, the weight loss result in the data set on female AR-97Q mice (female AR-97Q mice, FIG. 6A, control group hardly showed weight loss) is “significant weight loss”. In addition, the life-span entry in the data set on female AR-97Q mice (female AR-97Q mice, FIG. 6D) was “affected”. The “muscle atrophy and body size” value in the data set with female AR-97Q mice (female AR-97Q mice, FIG. 6E, #2-6, 14-week-old) was “marked muscle atrophy and reduction in body size; also recorded: severe muscular atrophy”. Moreover, the foot print analysis result in the data set with female AR-97Q mice (female AR-97Q mice, FIG. 6F, not detected in sesame oil-administered mice) was “exhibited motor weakness and dragged their hind legs”. For the same compound, the “motor impairment assessed by rotarod and cage activity” value in the data set on female AR-97Q mice (female AR-97Q mice, compared with control mice, FIGS. 6B and C) is recorded as “significantly worsened”.
